Results from PMC8366683 (Future oncology (London, England), 2013).
pIC50: −log10 of the molar value. Read-outs that look alike come from different tables or passages of the source.

Legend:
ABCG2-482-R2 = experiment: cells; details: 72 h, read-out: IC50 ± SD^†; nM (resistance fold) / ABCG2-482-R2
ABCG2-482-G2 = experiment: cells; details: 72 h, read-out: IC50 ± SD^†; nM (resistance fold) / ABCG2-482-G2
ABCG2-482-T7 = experiment: cells; details: 72 h, read-out: IC50 ± SD^†; nM (resistance fold) / ABCG2-482-T7
HEK293/pcDNA3.1 [1] = experiment: cells; details: Homo sapiens, HEK293, 72 h, read-out: IC50 ± SD^†; nM (resistance fold) / HEK293/pcDNA3.1
ABCB1 (P-glycoprotein) = ABCB1 (P-glycoprotein) (Homo sapiens, UniProt P08183); experiment: competition of […]-IAAP photoaffinity labeling; format: binding
HEK/ABCB1 = experiment: cells; details: 72 h, read-out: IC50 ± SD^†; nM (resistance fold) / HEK/ABCB1
HEK293/pcDNA3.1 [2] = experiment: cells; details: Homo sapiens, HEK293, 72 h, read-out: IC50 ± SD^†; nM (resistance fold) / HEK293/pcDNA3.1; remark: listed apart in the source
KB-3-1 = experiment: cells; details: Homo sapiens, KB 3-1, 72 h, read-out: IC50 ± SD^†; nM (resistance fold) / KB-3-1
KB-C2 = experiment: cells; details: Homo sapiens, KB-C2, 72 h, read-out: IC50 ± SD^†; nM (resistance fold) / KB-C2

Chain of ABCB1 (P-glycoprotein) (P08183 whole entry): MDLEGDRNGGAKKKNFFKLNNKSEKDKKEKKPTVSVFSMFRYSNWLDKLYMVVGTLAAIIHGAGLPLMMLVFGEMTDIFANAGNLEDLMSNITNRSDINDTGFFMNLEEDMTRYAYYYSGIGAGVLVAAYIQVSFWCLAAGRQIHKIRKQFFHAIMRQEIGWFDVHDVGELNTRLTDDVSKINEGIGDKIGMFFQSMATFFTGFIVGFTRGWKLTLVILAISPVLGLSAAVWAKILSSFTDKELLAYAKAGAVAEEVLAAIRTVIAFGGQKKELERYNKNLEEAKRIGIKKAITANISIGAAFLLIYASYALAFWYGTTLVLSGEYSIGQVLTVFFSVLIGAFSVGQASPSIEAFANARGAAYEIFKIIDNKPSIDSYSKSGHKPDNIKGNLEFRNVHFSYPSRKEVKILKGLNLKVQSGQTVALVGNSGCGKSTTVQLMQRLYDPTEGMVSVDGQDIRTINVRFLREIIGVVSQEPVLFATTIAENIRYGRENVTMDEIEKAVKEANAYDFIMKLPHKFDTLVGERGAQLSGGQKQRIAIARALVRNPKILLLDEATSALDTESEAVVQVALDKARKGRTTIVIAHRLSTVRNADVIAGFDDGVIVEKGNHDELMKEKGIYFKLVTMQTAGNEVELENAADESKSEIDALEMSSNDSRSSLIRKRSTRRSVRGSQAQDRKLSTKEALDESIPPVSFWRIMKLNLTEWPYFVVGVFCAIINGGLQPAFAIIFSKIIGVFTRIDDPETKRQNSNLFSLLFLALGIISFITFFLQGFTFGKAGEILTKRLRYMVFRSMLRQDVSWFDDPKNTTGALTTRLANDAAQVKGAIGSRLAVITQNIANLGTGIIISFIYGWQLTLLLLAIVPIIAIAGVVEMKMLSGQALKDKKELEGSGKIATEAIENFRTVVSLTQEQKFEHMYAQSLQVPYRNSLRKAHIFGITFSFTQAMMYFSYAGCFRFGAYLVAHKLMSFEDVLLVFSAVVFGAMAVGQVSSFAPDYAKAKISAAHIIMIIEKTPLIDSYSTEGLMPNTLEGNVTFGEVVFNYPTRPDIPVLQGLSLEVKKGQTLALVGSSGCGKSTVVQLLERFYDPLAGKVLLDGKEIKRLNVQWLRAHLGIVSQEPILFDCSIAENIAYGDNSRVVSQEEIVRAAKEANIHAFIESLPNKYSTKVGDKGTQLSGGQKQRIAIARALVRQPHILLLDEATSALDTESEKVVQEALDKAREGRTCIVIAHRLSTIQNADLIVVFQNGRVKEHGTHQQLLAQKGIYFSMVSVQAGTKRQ

Structure (SMILES) | IC50 (ABCG2-482-R2) [nM] | IC50 (ABCG2-482-G2) [nM] | IC50 (ABCG2-482-T7) [nM] | IC50 (HEK293/pcDNA3.1 [1]) [nM] | other results
O=C1c2c(O)ccc(O)c2C(=O)c2c(NCCNCCO)ccc(NCCNCCO)c21 [mitoxantrone] | 167 | 179 | 190 | 35.7 | –
CCc1c2c(nc3ccc(O)cc13)-c1cc3c(c(=O)n1C2)COC(=O)[C@]3(O)CC [SN-38] | 71.6 | 152 | 162 | 2.1 | –
COc1cc2nccc(Oc3ccc(NC(=O)Nc4cc(C)on4)c(Cl)c3)c2cc1OC [tivozanib] | – | – | – | – | pIC50 (ABCB1 (P-glycoprotein)): 5.54
CC[C@]1(O)C[C@H]2CN(CCc3c([nH]c4ccccc34)[C@@](C(=O)OC)(c3cc4c(cc3OC)N(C=O)[C@H]3[C@@](O)(C(=O)OC)[C@H](OC(C)=O)[C@]5(CC)C=CCN6CC[C@]43[C@@H]65)C2)C1 [Vincristine] | – | – | – | – | IC50 (HEK/ABCB1): 1410 nM; IC50 (HEK293/pcDNA3.1 [2]): 4.1 nM
COc1cccc2c1C(=O)c1c(O)c3c(c(O)c1C2=O)C[C@@](O)(C(=O)CO)C[C@@H]3O[C@H]1C[C@H](N)[C@H](O)[C@H](C)O1 [Doxorubicin] | 62.1 | 168 | 133 | 16.6 | –
CC[C@]1(O)C[C@@H]2CN(CCc3c([nH]c4ccccc34)[C@@](C(=O)OC)(c3cc4c(cc3OC)N(C)[C@H]3[C@@](O)(C(=O)OC)[C@H](OC(C)=O)[C@]5(CC)C=CCN6CC[C@]43[C@@H]65)C2)C1 [Vinblastine] | – | – | – | – | IC50 (KB-3-1): 0.2 nM; IC50 (KB-C2): 34.4 nM
CC(=O)O[C@H]1C(=O)[C@@]2(C)[C@H]([C@H](OC(=O)c3ccccc3)[C@]3(O)C[C@H](OC(=O)[C@H](O)[C@@H](NC(=O)c4ccccc4)c4ccccc4)C(C)=C1C3(C)C)[C@]1(OC(C)=O)CO[C@@H]1C[C@@H]2O [paclitaxel] | – | – | – | – | IC50 (HEK/ABCB1): 8480 nM; IC50 (HEK293/pcDNA3.1 [2]): 28.3 nM; IC50 (KB-3-1): 6.5 nM; IC50 (KB-C2): 4930 nM
